Assays:
[1] = target: ATM (Homo sapiens (Human), UniProt Q13315); test: ATM biochemical potency assay
Method: The plate was incubated at room temperature for 10 minutes. […] Data was collected by Caliper.

[2] = target: ATR (Homo sapiens (Human), UniProt Q13535); test: ATR biochemical potency assay
Method: ATR enzyme was made by ChemPartner (batch: CP-ATR-20161102-M2). 2× enzyme solutions were prepared in 1× kinase base buffer. 10 μl of 2× enzyme solution (final concentration: 2.5 nM) was added to each well of the 384-well assay plate containing 60 nl compound in each well. The plate was incubated at room temperature for 10 minutes. 2× peptide solutions were prepared with FAM-labeled peptide and ATP in the 1× kinase base buffer. 10 μl of 2× peptide solution was added to each well of the 384-well assay plate, which was incubated at 28° C. for 240 min. 40 μl of stop buffer was added to stop reaction. Data were collected by Caliper.

[3] = target: PI3Kα (p110α/p85a) (Homo sapiens (Human), UniProt P42336); test: PI3K biochemical potency assay (PI3Kα)
Method: (§1) PI3Kα (p110α/p85a), PIK3C δ, PIK3Cβ (p110β), PIK3Cγ (pp110γ) kinase reaction solutions of PI3Kα (Invitrogen, Cat. No. PV4788), PIK3Cδ (Invitrogen, Cat. No. PV6452), PIK3Cβ (Millipore, Cat. No. 14-603-K), PIK3Cγ (Invitrogen, Cat. No. PR8641C) enzymes were prepared in 1× kinase buffer at 4-fold of the final concentration (final concentration: PI3Kα 0.7 nM, PIK3Cδ 3 nM, PIK3Cβ 4.8 nM, PIK3Cγ 11 nM) of each reagent in the assay. 2.5 μl of kinase solution was added to each well of the 384-well assay plate, which contains 2.5 μl of compounds with serially diluted concentration. 2× substrate solution was prepared with PIP2 substrate and ATP in 1× kinase reaction buffer at 2-fold of the final concentration of each reagent in the assay. 5 μl of substrate solution was added to each well of the assay plate to start reaction. The assay plate was incubated at room temperature for 1 hour. 5 μl reaction mix was transferred to a new 384 well plate. 5 μl of ADP-Glo reagent (Promega, Cat. No. v9102/3, Lot. No. 0000176563) was added to each well of the new assay plate to stop the reaction. The plate was shaken slowly and equilibrated for 40 minutes. 10 μl kinase detection reagents was added to each well, which was equilibrated for 60 minutes before read on a plate reader (Envision) for luminescence.

[4] = target: PIK3Cβ (p110β) (Homo sapiens (Human), UniProt P42338); test: PI3K biochemical potency assay (PI3Kβ)
Method: as §1

[5] = target: PIK3Cγ (pp110γ) (Homo sapiens (Human), UniProt P48736); test: PI3K biochemical potency assay (PI3Kγ)
Sequence of PIK3Cγ (pp110γ) (P48736 whole entry): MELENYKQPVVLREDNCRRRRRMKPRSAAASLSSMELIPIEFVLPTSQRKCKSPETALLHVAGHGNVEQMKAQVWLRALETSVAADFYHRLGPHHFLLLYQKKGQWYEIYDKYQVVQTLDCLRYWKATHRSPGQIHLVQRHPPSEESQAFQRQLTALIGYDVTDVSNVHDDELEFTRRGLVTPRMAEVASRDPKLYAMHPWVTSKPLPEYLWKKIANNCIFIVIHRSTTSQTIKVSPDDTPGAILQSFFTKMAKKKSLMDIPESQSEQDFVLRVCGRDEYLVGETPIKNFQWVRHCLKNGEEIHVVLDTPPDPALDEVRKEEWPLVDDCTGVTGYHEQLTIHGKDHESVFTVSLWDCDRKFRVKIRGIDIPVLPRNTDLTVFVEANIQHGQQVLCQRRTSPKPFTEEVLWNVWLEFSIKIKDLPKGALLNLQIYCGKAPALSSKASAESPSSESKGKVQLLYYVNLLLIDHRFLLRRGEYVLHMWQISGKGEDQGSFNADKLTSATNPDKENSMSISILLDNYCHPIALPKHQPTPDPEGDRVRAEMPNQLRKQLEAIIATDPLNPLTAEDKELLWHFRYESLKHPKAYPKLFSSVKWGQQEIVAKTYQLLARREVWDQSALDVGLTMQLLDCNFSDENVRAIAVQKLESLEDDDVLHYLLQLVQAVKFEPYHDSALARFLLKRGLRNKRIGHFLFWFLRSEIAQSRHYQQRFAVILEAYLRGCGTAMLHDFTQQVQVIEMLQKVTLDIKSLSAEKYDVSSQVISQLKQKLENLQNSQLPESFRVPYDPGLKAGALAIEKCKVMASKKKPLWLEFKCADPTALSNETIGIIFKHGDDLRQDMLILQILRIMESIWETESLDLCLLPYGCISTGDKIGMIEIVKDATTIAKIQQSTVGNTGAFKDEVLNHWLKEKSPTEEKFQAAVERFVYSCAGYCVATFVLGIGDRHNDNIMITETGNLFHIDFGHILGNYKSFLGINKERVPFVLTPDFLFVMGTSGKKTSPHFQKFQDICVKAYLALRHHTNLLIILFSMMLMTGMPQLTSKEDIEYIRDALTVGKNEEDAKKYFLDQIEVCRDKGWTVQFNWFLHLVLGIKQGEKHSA
Method: as §1

[6] = target: PIK3Cδ (Homo sapiens (Human), UniProt O00329); test: PI3K biochemical potency assay (PI3Kδ)
Method: as §1

[7] = target: mTOR (Homo sapiens (Human), UniProt P42345); test: mTOR biochemical potency assay
Method: Solution of mTOR enzymes (Millipore, Cat. No. 14-770, Lot. No. 2052551) was prepared in 1× kinase buffer at 4-fold of the final concentration (final concentration: 6 nM) in the assay. 2.5 μl of kinase solution was added to each well of the 384-well assay plate, which contains 2.5 μl of compounds with serially diluted concentration. 2× substrate solution was prepared with ULight-4E-BP1 (Thr37/46) Peptide (PE, Cat. No. TRF0128-M, Lot. No. 1695274) and ATP in 1× kinase reaction buffer at 2-fold of the final concentration of each reagent in the assay. 5 μl of substrate solution was added to each well of the assay plate to start reaction. The assay plate was incubated at room temperature for 30 minutes. Detection solution of kinase quench buffer (EDTA) and Eu-anti-phospho-4E-BP1 antibody (Thr37/46) (PE, Cat. No. TRF0216-M, Lot. No. 1571838) were prepared at 2-fold the desired final concentrations of each reagent in Lance detection buffer. 10 μl of detection solution buffer was added to each well of the assay plate. The assay plate was equilibrated for 60 minutes at room temperature before read on a plate reader (Lance signal (665 nm) from Envision program).

[8] = target: ATM in SN38 treated HT-29 cells (Homo sapiens (Human), UniProt Q13315); test: ATM SN-38 HT-29 cellular potency assay
Sequence of ATM in SN38 treated HT-29 cells (Q13315 whole entry, looked up): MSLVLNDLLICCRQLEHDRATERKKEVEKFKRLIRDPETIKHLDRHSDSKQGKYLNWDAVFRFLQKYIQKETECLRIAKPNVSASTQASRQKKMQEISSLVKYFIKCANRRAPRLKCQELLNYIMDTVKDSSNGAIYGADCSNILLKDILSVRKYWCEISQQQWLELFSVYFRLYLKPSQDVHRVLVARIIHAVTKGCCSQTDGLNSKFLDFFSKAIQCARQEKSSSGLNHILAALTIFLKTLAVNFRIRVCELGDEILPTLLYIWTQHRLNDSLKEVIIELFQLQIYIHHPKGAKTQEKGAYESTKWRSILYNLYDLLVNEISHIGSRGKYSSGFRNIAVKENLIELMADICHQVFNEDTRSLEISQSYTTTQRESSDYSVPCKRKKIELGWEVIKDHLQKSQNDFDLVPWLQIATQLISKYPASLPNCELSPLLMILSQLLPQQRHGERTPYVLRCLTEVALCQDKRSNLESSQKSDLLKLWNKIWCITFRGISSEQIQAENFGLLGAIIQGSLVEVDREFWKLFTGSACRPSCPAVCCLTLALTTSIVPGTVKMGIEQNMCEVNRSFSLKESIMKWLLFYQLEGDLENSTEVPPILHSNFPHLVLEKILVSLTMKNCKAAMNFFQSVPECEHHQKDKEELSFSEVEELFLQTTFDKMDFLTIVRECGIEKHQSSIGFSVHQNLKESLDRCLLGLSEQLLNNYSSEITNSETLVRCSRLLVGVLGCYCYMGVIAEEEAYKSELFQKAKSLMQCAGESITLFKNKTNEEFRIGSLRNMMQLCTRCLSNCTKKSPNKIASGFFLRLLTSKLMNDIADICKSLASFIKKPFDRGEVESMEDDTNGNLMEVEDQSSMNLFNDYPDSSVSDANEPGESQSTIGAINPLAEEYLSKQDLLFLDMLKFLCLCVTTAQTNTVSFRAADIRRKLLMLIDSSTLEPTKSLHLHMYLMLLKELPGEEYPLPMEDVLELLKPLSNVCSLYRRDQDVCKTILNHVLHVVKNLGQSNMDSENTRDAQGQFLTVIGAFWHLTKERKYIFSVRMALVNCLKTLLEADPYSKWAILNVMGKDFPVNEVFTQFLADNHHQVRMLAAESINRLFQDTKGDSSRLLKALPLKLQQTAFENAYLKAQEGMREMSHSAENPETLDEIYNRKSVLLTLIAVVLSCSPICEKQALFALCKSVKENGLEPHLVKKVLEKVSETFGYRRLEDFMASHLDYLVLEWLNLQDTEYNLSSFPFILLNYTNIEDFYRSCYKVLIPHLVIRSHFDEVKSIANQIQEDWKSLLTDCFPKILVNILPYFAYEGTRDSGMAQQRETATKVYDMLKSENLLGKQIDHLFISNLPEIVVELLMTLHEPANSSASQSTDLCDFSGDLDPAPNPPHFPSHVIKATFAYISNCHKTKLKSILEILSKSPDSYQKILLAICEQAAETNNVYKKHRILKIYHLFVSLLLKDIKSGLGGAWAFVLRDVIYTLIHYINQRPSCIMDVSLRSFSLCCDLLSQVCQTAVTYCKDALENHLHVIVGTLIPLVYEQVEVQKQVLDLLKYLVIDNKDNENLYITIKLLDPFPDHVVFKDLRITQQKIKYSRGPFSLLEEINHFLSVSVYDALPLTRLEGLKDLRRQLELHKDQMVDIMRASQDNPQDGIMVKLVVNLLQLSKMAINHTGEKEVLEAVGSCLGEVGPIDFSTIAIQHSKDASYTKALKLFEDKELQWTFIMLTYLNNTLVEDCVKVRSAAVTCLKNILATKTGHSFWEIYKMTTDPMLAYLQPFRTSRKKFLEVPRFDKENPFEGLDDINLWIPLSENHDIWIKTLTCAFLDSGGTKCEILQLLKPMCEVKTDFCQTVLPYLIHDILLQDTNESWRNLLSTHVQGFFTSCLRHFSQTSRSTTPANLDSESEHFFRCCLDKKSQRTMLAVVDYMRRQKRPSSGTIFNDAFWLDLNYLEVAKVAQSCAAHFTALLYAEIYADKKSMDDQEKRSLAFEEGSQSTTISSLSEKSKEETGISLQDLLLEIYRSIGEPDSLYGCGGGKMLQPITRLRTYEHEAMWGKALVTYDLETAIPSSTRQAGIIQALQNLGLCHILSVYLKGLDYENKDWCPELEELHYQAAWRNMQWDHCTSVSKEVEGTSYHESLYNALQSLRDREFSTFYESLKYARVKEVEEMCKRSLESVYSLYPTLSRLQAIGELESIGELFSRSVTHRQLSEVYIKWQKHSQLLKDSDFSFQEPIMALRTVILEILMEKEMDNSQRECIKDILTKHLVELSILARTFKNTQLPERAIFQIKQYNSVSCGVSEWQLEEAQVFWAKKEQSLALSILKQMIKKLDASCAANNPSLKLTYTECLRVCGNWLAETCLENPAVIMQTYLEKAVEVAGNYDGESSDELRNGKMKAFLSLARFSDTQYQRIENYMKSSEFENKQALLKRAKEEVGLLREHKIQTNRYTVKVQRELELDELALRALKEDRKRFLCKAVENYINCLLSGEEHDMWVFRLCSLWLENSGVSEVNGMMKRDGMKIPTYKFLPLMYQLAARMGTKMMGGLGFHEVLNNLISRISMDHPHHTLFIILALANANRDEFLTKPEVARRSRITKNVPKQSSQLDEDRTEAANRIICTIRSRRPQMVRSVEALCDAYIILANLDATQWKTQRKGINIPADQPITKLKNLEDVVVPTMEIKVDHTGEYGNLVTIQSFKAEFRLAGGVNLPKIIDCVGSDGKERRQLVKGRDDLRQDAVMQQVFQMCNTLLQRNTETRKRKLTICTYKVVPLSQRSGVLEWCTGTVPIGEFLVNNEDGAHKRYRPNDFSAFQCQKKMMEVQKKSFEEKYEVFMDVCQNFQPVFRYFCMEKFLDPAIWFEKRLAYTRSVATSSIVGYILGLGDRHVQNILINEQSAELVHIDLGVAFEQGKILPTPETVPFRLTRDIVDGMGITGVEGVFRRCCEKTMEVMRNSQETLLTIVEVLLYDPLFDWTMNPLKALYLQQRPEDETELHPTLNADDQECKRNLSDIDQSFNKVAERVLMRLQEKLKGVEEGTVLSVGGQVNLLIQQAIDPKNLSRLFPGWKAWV
Method: Inhibition of ATM was evaluated in SN38 treated HT-29 cells (ATCC, Cat #HTB-38) by high-Content Imaging System
HT-29 cells were trypsinized and approximately 10,000 cells were seeded per well to 96-well microplates which were incubated overnight at 37° C. and 5% CO2. Test compounds were added to the 96-well plates which were incubated at 37° C. and 5% CO2 for 1 hour. […] After the plates were rinsed 3 times with PBSA, 50 μl permeabilization buffer (0.1% Triton-X 100 in PBSA) was added and the plates were incubated for 20 minutes at room temperature. After the plates were rinsed once with PBSA, 50 μl primary antibody solution was added and the plates were incubated in at 4° C. overnight. […] The plates were rinsed with PBST 3 times and then 100 μl PBSA were added per well. The plates were sealed with black plate seals.

Sequence of ATM (Q13315 whole entry, looked up): as above

SMILES | IC50 [1] | IC50 [2] | IC50 [3] | IC50 [4] | IC50 [5] | IC50 [6] | IC50 [7] | IC50 [8]
CC(C)n1c(=O)n(C)c2nnc3cc(F)c(-c4ccc(COCCN5CC6CC6C5)nc4)cc3c21 (centres unmarked) [Example 11, 8-(6-((2-(3-azabicyclo[3.1.0]hexan-3-yl)ethoxy)methyl)pyridin-3-yl)-7-fluoro-1-isopropyl-3-methyl-1H-imidazo[4,5-c]cinnolin-2(3H)-one] | 0.037 µM | > 10 µM | > 10 µM | > 10 µM | > 10 µM | > 10 µM | > 10 µM | 0.018 µM
CC(C)n1c(=O)n(C)c2nnc3cc(F)c(-c4ccc(OCCCN5CCCCC5)nc4)cc3c21 [Example 1, 7-fluoro-1-isopropyl-3-methyl-8-(6-(3-(piperidin-1-yl)propoxy)pyridin-3-yl)-1H-imidazo[4,5-c]cinnolin-2(3H)-one] | 0.0019 µM | > 10 µM | > 10 µM | > 10 µM | > 10 µM | > 10 µM | > 10 µM | 0.0015 µM
CC(C)n1c(=O)n(C)c2nnc3cc(F)c(-c4ccc(C(=O)NCCN(C)C)nc4)cc3c21 [Example 12, N-(2-(dimethylamino)ethyl)-5-(7-fluoro-1-isopropyl-3-methyl-2-oxo-2,3-dihydro-1H-imidazo[4,5-c]cinnolin-8-yl)picolinamide] | 0.363 µM | > 10 µM | > 10 µM | > 10 µM | > 10 µM | > 10 µM | > 10 µM | 
CC(C)n1c(=O)n(C)c2nnc3cc(F)c(-c4ccc(COCCN5CC[C@@H](F)C5)nc4)cc3c21 [Example 9, (R)-7-fluoro-8-(6-((2-(3-fluoropyrrolidin-1-yl)ethoxy)methyl)pyridin-3-yl)-1-isopropyl-3-methyl-1H-imidazo[4,5-c]cinnolin-2(3H)-one] | 0.035 µM | > 10 µM | > 10 µM | > 10 µM | > 10 µM | > 10 µM | > 10 µM | 
CN(C)CC1CCN(c2ccc(-c3cc4c(cc3F)nnc3c4n(C4CCOCC4)c(=O)n3C)cn2)C1 (centres unmarked) [Example 21, 8-(6-(3-((dimethylamino)methyl)pyrrolidin-1-yl)pyridin-3-yl)-7-fluoro-3-methyl-1-(tetrahydro-2H-pyran-4-yl)-1H-imidazo[4,5-c]cinnolin-2(3H)-one] | 0.097 µM |  |  |  |  |  |  | 
CC(C)n1c(=O)n(C)c2nnc3cc(F)c(-c4ccc(OCCCN(C)C)nc4)cc3c21 [Example 2, 8-(6-(3-(dimethylamino)propoxy)pyridin-3-yl)-7-fluoro-1-isopropyl-3-methyl-1H-imidazo[4,5-c]cinnolin-2(3H)-one] | 0.0043 µM | > 10 µM | > 10 µM | > 10 µM | > 10 µM | > 10 µM | > 10 µM | 0.27 µM
CC(C)n1c(=O)n(C)c2nnc3cc(F)c(-c4ccc(OCCCN5CCC(F)CC5)nc4)cc3c21 [Example 13, 7-fluoro-8-(6-(3-(4-fluoropiperidin-1-yl)propoxy)pyridin-3-yl)-1-isopropyl-3-methyl-1H-imidazo[4,5-c]cinnolin-2(3H)-one] | > 1 µM | > 10 µM | > 10 µM | > 10 µM | > 10 µM | > 10 µM | > 10 µM | 0.027 µM
Cn1c(=O)n(C2CCOCC2)c2c3cc(-c4ccc(OCCCN5CCCCC5)nc4)c(F)cc3nnc21 [Example 18, 7-fluoro-3-methyl-8-(6-(3-(piperidin-1-yl)propoxy)pyridin-3-yl)-1-(tetrahydro-2H-pyran-4-yl)-1H-imidazo[4,5-c]cinnolin-2(3H)-one] | 0.0048 µM |  |  |  |  |  |  | 
CC(C)n1c(=O)n(C)c2nnc3cc(F)c(-c4ccc(COCCN5CCCC5)nc4)cc3c21 [Example 8, 7-fluoro-1-isopropyl-3-methyl-8-(6-((2-(pyrrolidin-1-yl)ethoxy)methyl)pyridin-3-yl)-1H-imidazo[4,5-c]cinnolin-2(3H)-one] | 0.051 µM | > 10 µM | > 10 µM | > 10 µM | > 10 µM | > 10 µM | > 10 µM | 
Cn1c(=O)n(C2CCOCC2)c2c3cc(-c4ccc(OCCCN5CCCC5)nc4)c(F)cc3nnc21 [Example 20, 7-fluoro-3-methyl-8-(6-(3-(pyrrolidin-1-yl)propoxy)pyridin-3-yl)-1-(tetrahydro-2H-pyran-4-yl)-1H-imidazo[4,5-c]cinnolin-2(3H)-one] | 0.006 µM |  |  |  |  |  |  | 
CC(C)n1c(=O)n(C)c2nnc3cc(F)c(-c4ccc(OCCCN(C)C)nc4F)cc3c21 [Example 17, 8-(6-(3-(dimethylamino)propoxy)-2-fluoropyridin-3-yl)-7-fluoro-1-isopropyl-3-methyl-1,3-dihydro-2H-imidazo[4,5-c]cinnolin-2-one] | 0.007 µM |  |  |  |  |  |  | 
CC(C)n1c(=O)n(C)c2nnc3cc(F)c(-c4ccc(N5CCC(CN(C)C)C5)nc4)cc3c21 (centres unmarked) [Example 5, 8-(6-(3-((dimethylamino)methyl)pyrrolidin-1-yl)pyridin-3-yl)-7-fluoro-1-isopropyl-3-methyl-1H-imidazo[4,5-c]cinnolin-2(3H)-one] | 0.065 µM | > 10 µM | > 10 µM | > 10 µM | > 10 µM | > 10 µM | > 10 µM | 
Cn1c(=O)n(C2CCOCC2)c2c3cc(-c4ccc(OCCCN5CC[C@@H](F)C5)nc4)c(F)cc3nnc21 [Example 25, (R)-7-fluoro-8-(6-(3-(3-fluoropyrrolidin-1-yl)propoxy)pyridin-3-yl)-3-methyl-1-(tetrahydro-2H-pyran-4-yl)-1H-imidazo[4,5-c]cinnolin-2(3H)-one] | > 1 µM |  |  |  |  |  |  | 
CC(C)n1c(=O)n(C)c2nnc3cc(F)c(-c4ccc(N5CCC(N(C)C)CC5)nc4)cc3c21 [Example 4, 8-(6-(4-(dimethylamino)piperidin-1-yl)pyridin-3-yl)-7-fluoro-1-isopropyl-3-methyl-1H-imidazo[4,5-c]cinnolin-2(3H)-one] | 0.01 µM | > 10 µM | > 10 µM | > 10 µM | > 10 µM | > 10 µM | > 10 µM | 
Cn1c(=O)n(C2CCOCC2)c2c3cc(-c4ccc(OCCCN5CCC(F)CC5)nc4)c(F)cc3nnc21 [Example 24, 7-fluoro-8-(6-(3-(4-fluoropiperidin-1-yl)propoxy)pyridin-3-yl)-3-methyl-1-(tetrahydro-2H-pyran-4-yl)-1H-imidazo[4,5-c]cinnolin-2(3H)-one] | > 1 µM |  |  |  |  |  |  | 
CC(C)n1c(=O)n(C)c2nnc3cc(F)c(-c4ccc(COCCN5CCC(F)CC5)nc4)cc3c21 [Example 10, 7-fluoro-8-(6-((2-(4-fluoropiperidin-1-yl)ethoxy)methyl)pyridin-3-yl)-1-isopropyl-3-methyl-1H-imidazo[4,5-c]cinnolin-2(3H)-one] |  | > 10 µM | > 10 µM | > 10 µM | > 10 µM | > 10 µM | > 10 µM | 
CN(C)CCCOc1ccc(-c2cc3c(cc2F)nnc2c3n(C3CCOCC3)c(=O)n2C)cn1 [Example 19, 8-(6-(3-(dimethylamino)propoxy)pyridin-3-yl)-7-fluoro-3-methyl-1-(tetrahydro-2H-pyran-4-yl)-1H-imidazo[4,5-c]cinnolin-2(3H)-one] | 0.013 µM |  |  |  |  |  |  | 

From patent US12226414B2, “1-isopropyl-3-methyl-8-(pyridin-3-yl)-1,3-dihydro-2H-imidazo[4,5-c] cinnolin-2-one as selective modulators of ataxia telangiectasia mutated (ATM) kinase and uses thereof” (SUZHOU ZANRONG PHARMA LIMITED, priority 2018, dated 2025)
